Earlier results on one substance are cited in patent US5696156A, “Triterpene derivatives with immunosuppressant activity” (Merck & Co. Inc., priority 1996, dated 1997).

This data set deals with Kv 1.3 channels. The following applies: stated for the reference blocker that defines the efflux window.

By IC50 is commonly meant the concentration at which inhibition is half-maximal. Regarding “margatoxin (TIINVKCTSPKQCLPPCKAQFGQSAGAKCMNGKCKCYPH; UniProt P40755 1-39, looked up)”, the IC50 was 0.1 nM.
